Reference: US7235392B2, “Apoptotic EBV-transformed lymphocytes, a therapeutic agent for post-transplant lymphoproliferative disorder” (The Ohio State University Research Foundation, priority 2001, dated 2007)

Tests used:
[1] = test system: PA-Lymphoblastoid Cell Line; assay: PA-Lymphoblastoid Cell Line: effect of oxygen deprivation in the presence of 3 sensitizers (cell counts); assay type: cell-based; conditions: for cell count, Time (hour) 0: time 0 h; for cell count, Time (hour) 0 / cell count, Time (hour) 4 / cell count, Time (hour) 20: solutions and cells bubbled with nitrogen for 15 minutes (oxygen deprivation); for cell count, Time (hour) 4: time 4 h; for cell count, Time (hour) 20: time 20 h
Description: PA-Lymphoblastoid Cell Line: Study of the effect of oxygen deprivation in the presence of 3 sensitizers Six solutions were prepared having the solutions and the cells from each of the 6 sets were “bubbled” with nitrogen separately for 15 minutes before being mixed.

LCLs = assay: Cell synchronization with aphidicolin, flow cytometric cell cycle analysis of propidium iodide stained cells; assay type: cell-based, human
Description: Using a method described by Matherly^1 cell synchronization may be achieved with the drug aphidicolin, a DNA polymerase inhibitor. This drug prevents the cells from entering S-phase, the phase during which the cells replicate their DNA. Therefore, the cells accumulate at G1 phase, immediately prior to the start of S phase. These effects of aphidicolin are reversible; the cells return to normal cell-cycling soon after the drug is removed from the culture by washing. Thus, because all of the cells were synchronized together in G1, after removal of aphidicolin, they will proceed through S-phase together. Using flow cytometric analyis of propidium-iodine stained cells, as described by Krishan^2, we were able to determine the stage of cell cycle of the cultures:
Consequently, we hypothesize that treatment with aphidicolin will increase the effectiveness of specific killing via RBO-DNA photochemistry.

[2] = test system: EBV infected human lymphoblastoid cells (LCLs); conditions: 10 mM glutathione

Structure (SMILES) | hypoxic toxicity ([1]; oxygen deprivation, conclusion from cell counts) | cell count, Time (hour) 0 [1] | cell count, Time (hour) 4 [1] | cell count, Time (hour) 20 [1] | proportion of cells in S-phase (LCLs; after aphidicolin treatment and removal) | time of peak proportion of cells in S-phase after removal of aphidicolin (LCLs; after removal of aphidicolin from solution) | cell growth [2]
Cc1cc2c(cc1C)[n+]([O-])c1c(=O)[nH]c(=O)nc-1n2CC(O)C(O)C(O)CO (stereo not shown) [RBO, riboflavin N-oxide] | high hypoxic toxicity | 0.45 million cells/mL | 0.46 million cells/mL | 0.06 million cells/mL | – | – | –
Cc1cc2nc3c(=O)[nH]c(=O)nc-3n(C[C@H](O)[C@H](O)[C@H](O)CO)c2cc1C [Riboflavin (RB), Riboflavin] | – | 1 million cells/mL | 0.9 million cells/mL | 0.63 million cells/mL | – | – | –
Nc1n[n+]([O-])c2ccccc2[n+]1[O-] [Tirapazamine (TPZ), Tirapazamine] | – | 0.4 million cells/mL | 0.4 million cells/mL | 0.36 million cells/mL | – | – | –
C[C@@]1(CO)[C@H](O)CC[C@@]2(C)[C@H]1CC[C@H]1C[C@@H]3C[C@@]12CC[C@]3(O)CO [aphidicolin] | – | – | – | – | significantly increases | 6 h | –
N[C@@H](CCC(=O)N[C@@H](CS)C(=O)NCC(=O)O)C(=O)O [glutathione] | – | – | – | – | – | – | grow normally
